Source: patent US8916516B2, “Treatment of fungal and/or protist infections” (AI2 Limited, priority 2005, dated 2014)

Tests used:
Format in all cases: cell-based
[1] = test system: Fusarium solani 3 (FS3); test: Antifungal MIC (Example 4); details: Fusarium solani 3; peptides; Tables 4 and 5
Experimental: (§1) The inventor expanded the work conducted in Example 1 by testing an expanded library of peptides derived from either apolipoprotein B or apolipoprotein E in order to further evaluate polypeptides in accordance with the invention. These experiments were conducted using the following fungal species:
(§2) FS1-FS4 were obtained from Bristol PHLS (British Public Health Laboratory Service UK). Aspergillus fumigatus 293 is publicly available as culture collection strain NCPF7367 (National Collection of Pathogenic Fungi Public Health Laboratory, Mycological Reference Laboratory Myrtle Road, Kingsdown, Bristol BS2 8EL) The Candida albicans was a clinical isolate obtained by standard means.
(§3) The methods used to determine, the IC50 values for each peptide were as described in the Example 1.

[2] = test system: Fusarium solani 4 (FS4); test: Antifungal MIC (Example 4); details: Fusarium solani 4; peptides; Tables 4 and 5
Experimental: as §1, §2, §3

[3] = test system: Fusarium solani 1 (FS1); test: Antifungal MIC (Example 4); details: Fusarium solani 1; peptides; Tables 4 and 5
Experimental: as §1, §2, §3

[4] = test system: Candida albicans (CA), clinical isolate; test: Antifungal MIC (Example 4); details: peptides, Tables 4 and 5
Experimental: as §1, §2, §3

[5] = test system: Aspergillus fumigatus AF293 (NCPF7367); test: microbe, parasite or virus in culture; details: Aspergillus fumigatus 293; peptides; Tables 4 and 5
Experimental: (§4) Four compounds were supplied as an aqueous solution, 400 μM. Serial dilutions of each test peptide were prepared in addition to a control, which was a conventional antifungal drug, Amphoteracin B. Amphteracin B is obtained from Invitrogen or Melford laboratories.
(§5) Initial testing of the peptides was carried out against the following organisms: • 1) Aspergillus fumigatus AF293 (culture collection strain NCPF7367) • 2) Candida albicans 6862 (clinical isolate) • 3) Fusarium spp 5889 (clinical isolate) • 4) Fusarium spp 6507 (clinical isolate) • 5) Aspergillus terreus (clinical isolate) • 6) Aspergillus niger (clinical isolate) • 7) Staphylococcus aureus (Oxford strain, which is a standard reference strain used in MIC testing)
The bacterium S. aureus was tested with each of the peptides as a control. A suspension of each organism in an appropriate growth medium was added to the, dilutions of the peptides in order to give concentration ranges of 40 μM to 0.04 μM for each of the peptides, and 64-0.025 μg/ml for amphotericin B. Fungal strains were tested in RPMI media. RPMI is standard Roswell Park Memorial Institute medium (Morton, H. C., (1970) A survey of Commercially Available Tissue Culture Media. In Vitro 6: 89-108).
The final inoculum for S. aureus was 5×10^4 cfu/ml. The final inoculum for C. albicans was 2×10^3 cfu/ml. The final inoculum for Aspergillus fumigatus and for Fusarium spp was 2×10^4 cfu/ml.
(§6) Candida and S. aureus plates were read after 24 hrs incubation and the Aspergillus and Fusarium strains read after 48 hrs. The MIC was taken as the lowest drug or compound concentration that caused >80% reduction in growth compared with a drug free control.
Aspergillus fumigatus 293 (AF); and
FS1-FS4 were obtained from Bristol PHLS (British Public Health Laboratory Service UK). Aspergillus fumigatus 293 is publicly available as culture collection strain NCPF7367 (National Collection of Pathogenic Fungi Public Health Laboratory, Mycological Reference Laboratory Myrtle Road, Kingsdown, Bristol BS2 8EL) The Candida albicans was a clinical isolate obtained by standard means. […]

[6] = test system: Fusarium solani 2 (FS2); test: Antifungal MIC (Example 4); details: Fusarium solani 2; peptides; Tables 4 and 5
Experimental: as §1, §2, §3

[7] = test system: fungi; details: overall statement on the fungi tested
Experimental: as §4, §5
The bacterium S. aureus was tested with each of the peptides as a control. […] RPMI is standard Roswell Park Memorial Institute medium (Morton, H. C., (1970) A survey of Commercially Available Tissue Culture Media. In Vitro 6: 89-108).
as §6, §3

Row | Sequence | MIC values (>80% reduction) FS3 [1] [µM] | MIC values (>80% reduction) FS4 [2] [µM] | MIC values (>80% reduction) FS1 [3] [µM] | MIC values (>80% reduction) CA [4] [µM] | MIC values (>80% reduction) AF [5] [µM] | MIC values (>80% reduction) FS2 [6] [µM] | antifungal activity (in words) [7]
1 | ARKARKRAAARKARKRAA (Artificial polypeptide designated MU 2) [MU_2, 77] | >40 | >40 | >40 | >40 | >40 | >40 | –
2 | DRKDRKRDDDRKDRKRDD (Artificial polypeptide designated MU 3) [MU_3, 78] | >40 | >40 | >40 | >40 | >40 | >40 | –
3 | ERKERKREEERKERKREE (Artificial polypeptide designated MU 1) [MU_1, 76] | >40 | >40 | >40 | >40 | >40 | >40 | –
4 | GRKGRKRGGGRKGRKRGG (Artificial polypeptide designated MU 17) [MU_17, 84] | >40 | >40 | >40 | >40 | >40 | >40 | –
5 | HRKHRKRHHHRKHRKRHH (Artificial polypeptide designated MU 19) [MU_19] | 40 | 10 | 20 | >40 | >40 | >40 | –
6 | IRKIRKRIIIRKIRKRII (Artficial polypeptide designated MU 8) [MU_8] | 20 | 40 | 40 | >40 | >40 | 20 | –
7 | LRKLRKRLL (listed as Homo sapiens) [apoE141-149, monomeric 9-mer of apolipoprotein E, reference compound] | – | – | – | – | – | – | no detectable antifungal activity
8 | LRKLRKRLLLRKLRKRWW (Artificial polypeptide designated MU 112) [MU_112, 24] | 2.5 | 5 | 2.5 | >40 | >40 | 2.5 | –
9 | LRKLRKRLLRLRKLRKRLLR (Artificial polypeptide designated MU 82) [MU_82, 21] | 2.5 | 10 | 2.5 | >40 | >40 | 2.5 | –
10 | MRKMRKRMMMRKMRKRMM (Artificial polypeptide designated MU 16) [MU_5] | 20 | 40 | 10 | >40 | >40 | 20 | –
11 | NRKNRKRNNNRKNRKRNN (Artificial polypeptide designated MU 11) [MU_11, 80] | 40 | >40 | >40 | >40 | >40 | >40 | –
12 | PRKPRKRPPPRKPRKRPP (Artificial polypeptide designated MU 20) [MU_20, 86] | >40 | >40 | >40 | >40 | >40 | >40 | –
13 | QRKQRKRQQQRKQRKRQQ (Artificial polypeptide designated MU 9) [MU_9, 79] | >40 | >40 | >40 | >40 | >40 | >40 | –
14 | RLTRKRGLK (listed as Homo sapiens) [apoB3359-3367, monomeric 9-mer of apolipoprotein B, reference compound] | – | – | – | – | – | – | no detectable antifungal activity
15 | SRKSRKRSSSRKSRKRSS (Artificial polypeptide designated MU 13) [MU_13, 81] | >40 | >40 | >40 | >40 | >40 | >40 | –
16 | TRKTRKRTTTRKTRKRTT (Artificial polypeptide designated MU 15) [MU_15, 83] | >40 | >40 | >40 | >40 | >40 | >40 | –
17 | VRKVRKRVVVRKVRKRVV (Artificial polypeptide designated MU 14) [MU_14, 82] | >40 | >40 | >40 | >40 | >40 | >40 | –
18 | WRKWRKRWWLRKLRKRLL (Artificial polypeptide designated GIN 34) | 1.25 | 12.5 | 1.25 | 10 | 40 | 0.6 | –
